According to ChEMBL document CHEMBL4402558, “Designing Chimeric Molecules for Drug Discovery by Leveraging Chemical Biology” (J Med Chem, 2020):

Species: Homo sapiens
Assay: Antitumour activity against human DLBCL patients assessed as response rate co-treatment with rituximab relative to control
Format: functional

Compound: Cn1c(CCCC(=O)O)nc2cc(N(CCCl)CCCl)ccc21
- Activity: 18%
